For series [1], the target named is T1, Human immunodeficiency virus type 1 integrase (Human immunodeficiency virus 1, UniProt Q7ZJM1).
Series [2] concerns the target T1, Human immunodeficiency virus type 1 integrase. The source holds these as a separate data set.
Description: Inhibition of HIV-1 integrase catalytic activity
Series [3] is described as follows: Therapeutic index expressed as the ratio of CC50 and EC50; No therapeutic benifit reached. Format: cell-based. The note with it: human, ccrf-cem.
Series [4] deals with CCRF-CEM. The experiment in a line: Cytotoxic concentration against uninfected CEM cells. The note with it: Homo sapiens. Format: functional.
For series [5], the system named is CCRF-CEM. Kind of series: Anti HIV-1 activity expressed as the concentration required to protect of HIV-1 infected CEM cells. The format is functional, cell-based. The note with it: Homo sapiens.
Series [6] relates to CCRF-CEM. The experiment in a line: Maximum protection of CEM cells by the compound against HIV-1; No protection. Format: functional, cell-based. The note with it: Homo sapiens.
The subject of series [7] is CCRF-CEM. Kind of series: Maximum protection of CEM cells by the compound against HIV-1 at a dose of 20 uM. The format is functional, Homo sapiens.
Series [8] in a line: Therapeutic index expressed as the ratio of CC50 and EC50. Format: cell-based. The note with it: human, CCRF-CEM cells; read-out: Therapeutic index.
The test system of series [9] is CCRF-CEM. The experiment in a line: Maximum protection of CEM cells by the compound against HIV-1 at a dose of 2 uM; No protection. The note with it: Homo sapiens. Format: functional, cell-based.
For series [10], the system named is CCRF-CEM. The experiment in a line: Maximum protection of CEM cells by the compound against HIV-1 at a dose of 2 uM. Format: functional, Homo sapiens.
Series [11] deals with T1, Human immunodeficiency virus type 1 integrase. The experiment in a line: Evaluated for inhibition of HIV-1 integrase catalytic activity in terms of inhibition of 3'-processing. The format is functional.
The test system of series [12] is CCRF-CEM. The experiment in a line: Maximum protection of CEM cells by the compound against HIV-1 at a dose of 0.2 uM. Format: functional, Homo sapiens.
Series [13] relates to CCRF-CEM. The experiment in a line: Maximum protection of CEM cells by the compound against HIV-1 at a dose of 63 uM. Format: functional, Homo sapiens.

Some results are limits rather than exact numbers.

T1 sequence (Q7ZJM1 whole entry): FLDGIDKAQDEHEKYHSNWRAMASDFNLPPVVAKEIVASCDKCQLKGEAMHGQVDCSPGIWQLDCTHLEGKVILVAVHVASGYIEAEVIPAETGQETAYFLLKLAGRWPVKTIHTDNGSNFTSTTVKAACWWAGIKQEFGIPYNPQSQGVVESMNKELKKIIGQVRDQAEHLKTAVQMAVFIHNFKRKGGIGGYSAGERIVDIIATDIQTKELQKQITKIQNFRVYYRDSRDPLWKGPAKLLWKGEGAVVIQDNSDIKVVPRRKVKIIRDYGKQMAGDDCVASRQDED

In general, IC50 refers to the concentration needed to halve the response being measured. In general, CC50 refers to the concentration that lowers cell viability or growth by half. Read a high CC50 as better tolerance by the cells. One may read the EC50 as the midpoint of the concentration-response curve. Regarding `O=C(/C=C(\O)c1cccc(Cc2ccccc2F)c1)C(=O)NCCCNC(=O)C(=O)/C=C(\O)c1cccc(Cc2ccccc2F)c1`, the IC50 was found to be 5.3 µM in [1] and 0.2 µM in series [2]. Also, in series [3], the Therapeutic index result was “No therapeutic benefit”. In the series with CCRF-CEM [4], this molecule returned a CC50 of 9 µM. Besides, the half-maximal effective concentration (EC50) with CCRF-CEM [5] was over 9 µM. For the same molecule, the Max protection result in the series on CCRF-CEM [6] is “No protection”.
For `O=C(O)C(=O)/C=C(\O)c1cccc(C(c2cccc(/C(O)=C/C(=O)C(=O)O)c2)c2ccccc2F)c1` (configuration not stated), the Max protection in the series on CCRF-CEM [7] was determined as 88%. The molecule further displayed a CC50 in the series with CCRF-CEM [4] of 81 µM. In the series with CCRF-CEM [5], this molecule registered a concentration giving a half-maximal response (EC50) of 17 µM.
Regarding `O=C(/C=C(\O)c1cccc(Cc2ccccc2F)c1)C(=O)NCCCCCCNC(=O)C(=O)/C=C(\O)c1cccc(Cc2ccccc2F)c1`, the IC50 was determined as 32 µM in [1] and 2.7 µM in series [2]. Also, the Max protection in the series with CCRF-CEM [7] worked out at 86%. Besides, the CC50 in the series with CCRF-CEM [4] turned out to be 124 µM. The molecule further yielded a half-maximal effective concentration (EC50) in the series on CCRF-CEM [5] of 16 µM. The selectivity ratio in series [8] is 8.
Regarding `O=C(/C=C(\O)c1cccc(Cc2ccccc2F)c1)C(=O)NCCCCCNC(=O)C(=O)/C=C(\O)c1cccc(Cc2ccccc2F)c1`, the half-inhibitory concentration (IC50) was determined as 4.8 µM in [1] and 0.7 µM in [2]. Also, the Therapeutic index entry in series [3] is “No therapeutic benefit”. Moreover, half-maximal cytotoxicity in the series on CCRF-CEM [4] (CC50) was put at 12 µM. This molecule also had a concentration giving a half-maximal response (EC50) with CCRF-CEM [5] of over 12 µM. The Max protection entry with CCRF-CEM [6] was “No protection”.
Turning to `O=C(/C=C(\O)c1cccc(Cc2ccccc2F)c1)C(=O)NCCNC(=O)C(=O)/C=C(\O)c1cccc(Cc2ccccc2F)c1`, the IC50 in series [1] is 5.8 µM; in [2], 0.2 µM. In the series on CCRF-CEM [9], the Max protection entry is “No protection”. Also, in series [3], the Therapeutic index result is given as “No therapeutic benefit”. Also, in the series with CCRF-CEM [4], the CC50 is 5 µM. Moreover, in the series on CCRF-CEM [5], the concentration for a half-maximal effect (EC50) is over 5 µM.
`O=C(/C=C(\O)c1cccc(Cc2ccccc2F)c1)C(=O)N1CCN(C(=O)C(=O)/C=C(\O)c2cccc(Cc3ccccc3F)c2)CC1`: the IC50 in series [2] was determined as 0.3 µM; in series [11], 2.5 µM. In addition, in the series on CCRF-CEM [4], the CC50 amounted to 11 µM. In the series on CCRF-CEM [5], this molecule displayed an EC50 of 0.8 µM. The molecule further displayed a Max protection with CCRF-CEM [10] of 100%. The selectivity ratio in [8] came out at 14.
In the case of `O=C(O)C(=O)/C=C(\O)c1cccc(OCc2ccc(COc3cccc(/C(O)=C/C(=O)C(=O)O)c3)cc2)c1`, the IC50 in series [1] was found to be 1.7 µM; in [2], 1.9 µM. The Therapeutic index entry in series [3] is “No therapeutic benefit”. In the series on CCRF-CEM [4], this molecule showed a 50% cytotoxic concentration (CC50) of over 200 µM. Moreover, the EC50 in the series on CCRF-CEM [5] is over 200 µM. In addition, in the series with CCRF-CEM [6], the Max protection entry is “No protection”.
In the case of `O=C(O)C(=O)/C=C(\O)c1cccc(Cc2ccccc2F)c1`, the results for the IC50 in series [1] and in series [2] were 2.5 µM and 0.4 µM, respectively. In the series with CCRF-CEM [4], this molecule registered a CC50 of 62 µM. Also, the EC50 in the series with CCRF-CEM [5] worked out at 0.02 µM. Besides, in the series with CCRF-CEM [12], the Max protection was 98%. The selectivity ratio in [8] is 3110.
In series [1], `O=C(O)C(=O)/C=C(\O)c1cccc(OCc2cccc(COc3cccc(/C(O)=C/C(=O)C(=O)O)c3)c2)c1` had a half-maximal inhibitory concentration (IC50) of 7.3 µM. In addition, in the series with CCRF-CEM [4], the CC50 is over 200 µM. The molecule further came in with an EC50 with CCRF-CEM [5] of over 200 µM. Besides, the Max protection result in the series on CCRF-CEM [6] was “No protection”.
As for `O=C(O)C(=O)/C=C(\O)c1cccc(OCc2ccccc2COc2cccc(/C(O)=C/C(=O)C(=O)O)c2)c1`, the Max protection with CCRF-CEM [13] stood at 97%. In addition, the half-maximal cytotoxic concentration (CC50) in the series on CCRF-CEM [4] was over 200 µM. In the series with CCRF-CEM [5], this molecule showed an EC50 of 39 µM.
